From patent US20260207649A1, “LSD1 INHIBITOR AND PRMT6 INHIBITOR FOR USE IN THE TREATMENT OF A DISEASE ASSOCIATED WITH GAIN-OF-FUNCTION OF ANDROGEN RECEPTOR (AR) AND/OR WITH OVEREXPRESSION OF AN AR COACTIVATOR” (FONDAZIONE TELETHON ETS(30%), priority 2022, published 2026)
Like-named read-outs stand apart in the source and are kept apart here. Values belong to the molecule of their own block, whether it stands above or below them.

Tests used:
AR100Q mice = details: three times a week, from week 4
Procedure: A randomized cohort of male transgenic AR100Q mice and WT siblings was assigned to either control or treated group.
Phenelzine was administered at a dose of 30 mg/Kg in drinking water; three times a week; TCP was administered at a dose of 6 mg/Kg intraperitoneal, three times a week.
Mice were randomized and the operators were blind for genotype and treatment. The phenotype was analyzed by looking at muscle strength with grip strength test.

AR24Q (human) = AR24Q (human) (UniProt P10275); experiment: cell-based or functional assay
AR65Q (human) = AR65Q (human) (UniProt P10275); experiment: cell-based or functional assay
polyQ-expanded AR = experiment: Transcriptional (ARE-luciferase) assay in HEK293T cells expressing polyQ-expanded AR; format: cell-based, human; details: AR65Q, DHT 10 nM, 16 h; for polyQ-expanded AR transactivation induced by DHT: mock-transfected, inhibitor 10 μM
Procedure: (§1) Cell Cultures, Transfection, and Transduction MN1^9 and HEK293T (ATCC) cells were cultured and plated in DMEM complete medium [Dulbecco's Modified Eagle Medium supplemented with 10% fetal bovine serum (FBS), 1% penicillin/streptomycin (pen/strep), and 1% L-glutamine] and LNCaP cells in RPMI complete medium (Gibco Roswell Park Memorial Institute supplemented with 10% FBS, 1% penicillin/streptomycin, and 1% L-glutamine). C2C12 cells were cultured and differentiated to myotubes. Cells were kept in a humidified incubator with 5% CO2 at 37° C. HEK293T cells were transfected with polyethyleneimine (PEI) linear MW 25,000 Da (Sigma-Aldrich) according to well dimensions. DNA: PEI (0.5% v/v) ratio was 1:1. At 24 hours after the transfection the DMEM complete medium supplemented with 10% FBS was changed with DMEM supplemented with charcoal stripped FBS and cells were treated with vehicle (ethanol) or 10 nM DHT and harvested for the different analysis 24 h after the treatment. For the pharmacological inhibition, we treated cells with the LSD1 catalytic inhibitor tranylcypromine (TCP) and the PRMT inhibitor adenosine dialdehyde (AdOx) both at a final concentration of 10 μM, instead for the selective LSD1 inhibitor SP-2509, we used it at a final concentration of 100 nm. MN-1 cells were transfected with Lipofectamine 2000 according to manufacturer instructions (Thermo Fisher). MN1 and LNCaP cells were transiently transduced with lentiviruses (MOI 30) or transfected with 2 μg DNA using Lipofectamine 2000 CD Transfection Reagent (ThermoFisher Scientific, 12566014). The following day, positively transfected cells were selected with […] Blasticidin (PanReacApplichem, A3784,0025). After 24 hours of selection or at 48 hours post-transduction, cells were induced with 10 nM dihydrotestosterone (DHT) in DMEM or RPMI medium supplemented with 10% charcoal-stripped FBS, 1% pen/strep, and 1% L-glutamine. The SBMA iPSCs were derived and differentiated. iPSCs were maintained on Matrigel (Corning, 354277) coated tissue culture dishes in E8 Flex medium (Thermo Fisher, A2858501). […]

normal AR = experiment: Transcriptional (ARE-luciferase) assay in HEK293T cells expressing normal AR; format: cell-based, human; details: AR24Q, mock-transfected, DHT 10 nM, 16 h, inhibitor 10 μM
Procedure: Cell Cultures, Transfection, and Transduction MN1^9 and HEK293T (ATCC) cells were cultured and plated in DMEM complete medium [Dulbecco's Modified Eagle Medium supplemented with 10% fetal bovine serum (FBS), 1% penicillin/streptomycin (pen/strep), and 1% L-glutamine] and LNCaP cells in RPMI complete medium (Gibco Roswell Park Memorial Institute supplemented with 10% FBS, 1% penicillin/streptomycin, and 1% L-glutamine). C2C12 cells were cultured and differentiated to myotubes. Cells were kept in a humidified incubator with 5% CO2 at 37° C. HEK293T cells were transfected with polyethyleneimine (PEI) linear MW 25,000 Da (Sigma-Aldrich) according to well dimensions. DNA: PEI (0.5% v/v) ratio was 1:1. At 24 hours after the transfection the DMEM complete medium supplemented with 10% FBS was changed with DMEM supplemented with charcoal stripped FBS and cells were treated with vehicle (ethanol) or 10 nM DHT and harvested for the different analysis 24 h after the treatment. […] MN-1 cells were transfected with Lipofectamine 2000 according to manufacturer instructions (Thermo Fisher). […] The following day, positively transfected cells were selected with […] Blasticidin (PanReacApplichem, A3784,0025). […]

AR = experiment: Transcriptional assay in HEK293T cells expressing AR24Q or AR65Q, with LSD1/PRMT6 overexpression or CRISPR silencing; format: cell-based, human; details: 16 h, inhibitor 10 μM; for effect of overexpression of LSD1 on AR transactivation: AR24Q and AR65Q with LSD1, DHT 10 nM; for effect of overexpression of PRMT6 on AR transactivation: AR24Q and AR65Q with PRMT6, DHT 10 nM
Procedure: Cell Cultures, Transfection, and Transduction MN1^9 and HEK293T (ATCC) cells were cultured and plated in DMEM complete medium [Dulbecco's Modified Eagle Medium supplemented with 10% fetal bovine serum (FBS), 1% penicillin/streptomycin (pen/strep), and 1% L-glutamine] and LNCaP cells in RPMI complete medium (Gibco Roswell Park Memorial Institute supplemented with 10% FBS, 1% penicillin/streptomycin, and 1% L-glutamine). C2C12 cells were cultured and differentiated to myotubes. Cells were kept in a humidified incubator with 5% CO2 at 37° C. HEK293T cells were transfected with polyethyleneimine (PEI) linear MW 25,000 Da (Sigma-Aldrich) according to well dimensions. DNA: PEI (0.5% v/v) ratio was 1:1. At 24 hours after the transfection the DMEM complete medium supplemented with 10% FBS was changed with DMEM supplemented with charcoal stripped FBS and cells were treated with vehicle (ethanol) or 10 nM DHT and harvested for the different analysis 24 h after the treatment. […] MN-1 cells were transfected with Lipofectamine 2000 according to manufacturer instructions (Thermo Fisher). […] The following day, positively transfected cells were selected with […] Blasticidin (PanReacApplichem, A3784,0025). After 24 hours of selection or at 48 hours post-transduction, cells were induced with 10 nM dihydrotestosterone (DHT) in DMEM or RPMI medium supplemented with 10% charcoal-stripped FBS, 1% pen/strep, and 1% L-glutamine. […] For differentiation stably transfected iPSCs were induced with Neural Induction Medium (NIM) containing […] doxycycline and 10 nM R1881. After 48 hours of doxycycline treatment, motor neurons were dissociated with accutase to single cells and re-plated on PDL/Laminin coated surfaces in Neural Differentiation Medium (NDM) containing […] doxycycline and 10 nM R1881. On day 4, half of the cell culture medium was removed and replaced by Neuron Medium (NM) containing 10 nM R1881.
Luciferase assays were performed. In brief, HEK293T cells were transfected with vectors expressing non-expanded and polyglutamine-expanded AR together with vectors expressing the luciferase reporter gene under the control of a canonical androgen responsive element (ARE-Luc). To normalize data for transfection efficiency, the cells express Renilla reporter gene under the control of the timidine kinase (TK-Ren) transfected with ARE-Luc in a ratio of 1:10. Cells are treated with vehicle and DHT for 16 h and then processed for luciferase assay, as manufacturer's instructions (Promega).

Prmt6 = experiment: Western blots of PRMT6 in MN1 cells transfected with amiR vectors; format: cell-based, mouse
Procedure: as §1, with “L-glutamine.” for “L-glutamine. The SBMA iPSCs were derived and differentiated. iPSCs were maintained on Matrigel (Corning, 354277) coated tissue culture dishes in E8 Flex medium (Thermo Fisher, A2858501).”
(§2) The protein concentration was measured using the bicinchoninic acid (BCA) assay method (Pierce™ BCA® Protein Assay, Thermo Scientific). […]

Lsd1 = experiment: Western blots of LSD1 in MN1 cells transfected with amiR vectors; format: cell-based, mouse
Procedure: as §1, with “L-glutamine.” for “L-glutamine. The SBMA iPSCs were derived and differentiated. iPSCs were maintained on Matrigel (Corning, 354277) coated tissue culture dishes in E8 Flex medium (Thermo Fisher, A2858501).”
as §2

Molecule: NNCCc1ccccc1 [Phenelzine, phenelzine]
phenotype of AR100Q mice (grip strength normalized to body weight) (AR100Q mice; 30 mg/Kg in drinking water): ameliorated

AR transactivation (transcriptional assay, HEK293T cells) (AR24Q (human)): 3.1 fold
AR transactivation (transcriptional assay, HEK293T cells) (AR65Q (human)): 3.4 fold
Molecule: protein arginine methyltransferase 6 (PRMT6) (from UniProt Q96LA8 1-375)

Molecule: C/C(=N\NC(=O)c1cccc(S(=O)(=O)N2CCOCC2)c1)c1cc(Cl)ccc1O [SP-2509]
polyQ-expanded AR transactivation (polyQ-expanded AR; inhibitor 100 nM): did not modify

Molecule: Nc1ncnc2c1ncn2C(C=O)OC(C=O)CO (stereo not shown) [AdOx, adenosine dialdehyde]
normal AR transactivation induced by DHT (normal AR): reduced
polyQ-expanded AR transactivation induced by DHT (polyQ-expanded AR): reduced
effect of overexpression of LSD1 on AR transactivation (AR): reduced
effect of overexpression of PRMT6 on AR transactivation (AR): attenuated

Molecule: N[C@@H]1C[C@H]1c1ccccc1 (racemic) [TCP, tranylcypromine]
normal AR transactivation induced by DHT (normal AR): reduced
polyQ-expanded AR transactivation induced by DHT (polyQ-expanded AR): reduced
effect of overexpression of LSD1 on AR transactivation (AR): reduced
effect of overexpression of PRMT6 on AR transactivation (AR): attenuated
phenotype of AR100Q mice (grip strength normalized to body weight) (AR100Q mice; 6 mg/Kg intraperitoneal): ameliorated

B1: amiR-Prmt6 #7: artificial miRNA targeting mouse Prmt6, oligos SEQ ID NO: 151, 152 (nucleic acid)
chain 1: TGCTGTATTAGATTAGAGTGCTCGCGGTTTTGGCCACTGACTGACCGCGAGCACTAATCTAATA
chain 2: CCTGTATTAGATTAGTGCTCGCGGTCAGTCAGTGGCCAAAACCGCGAGCACTCTAATCTAATAC
modifications: expressed or natural sequence
silencing of Prmt6 (Prmt6): ~ 50%

B2: amiR-Prmt6 #2: artificial miRNA targeting mouse Prmt6, oligos SEQ ID NO: 141, 142 (nucleic acid)
chain 1: TGCTGCGGAGTAGCACTCGTAGTACAGTTTTGGCCACTGACTGACTGTACTACGTGCTACTCCG
chain 2: CCTGCGGAGTAGCACGTAGTACAGTCAGTCAGTGGCCAAAACTGTACTACGAGTGCTACTCCGC
modifications: expressed or natural sequence
silencing of Prmt6 (Prmt6): ~ 50%

B3: amiR-Lsd1 #3: artificial miRNA targeting mouse Lsd1, oligos SEQ ID NO: 234, 235 (nucleic acid)
chain 1: TGCTGTTGATGAGAGGTATACATCACGTTTTGGCCACTGACTGACGTGATGTACCTCTCATCAA
chain 2: CCTGTTGATGAGAGGTACATCACGTCAGTCAGTGGCCAAAACGTGATGTATACCTCTCATCAAC
modifications: expressed or natural sequence
silencing of Lsd1 expression (Lsd1): 70%

B4: amiR-Lsd1 #2: artificial miRNA targeting mouse Lsd1, oligos SEQ ID NO: 155, 156 (nucleic acid)
chain 1: TGCTGTTTACTTGTTTGCTGACGACAGTTTTGGCCACTGACTGACTGTCGTCAAAACAAGTAAA
chain 2: CCTGTTTACTTGTTTTGACGACAGTCAGTCAGTGGCCAAAACTGTCGTCAGCAAACAAGTAAAC
modifications: expressed or natural sequence
silencing of Lsd1 expression (Lsd1): 70%

B5: amiR-Prmt6 #6: artificial miRNA targeting mouse Prmt6, oligos SEQ ID NO: 149, 150 (nucleic acid)
chain 1: TGCTGAATCAGACCATGTTGCCTTTCGTTTTGGCCACTGACTGACGAAAGGCAATGGTCTGATT
chain 2: CCTGAATCAGACCATTGCCTTTCGTCAGTCAGTGGCCAAAACGAAAGGCAACATGGTCTGATTC
modifications: expressed or natural sequence
silencing of Prmt6 (Prmt6): ~ 50%

B6: amiR-Lsd1 #1: artificial miRNA targeting mouse Lsd1, oligos SEQ ID NO: 153, 154 (nucleic acid)
chain 1: TGCTGTTTCTCTGTATTCTACCTTGGGTTTTGGCCACTGACTGACCCAAGGTAATACAGAGAAA
chain 2: CCTGTTTCTCTGTATTACCTTGGGTCAGTCAGTGGCCAAAACCCAAGGTAGAATACAGAGAAAC
modifications: expressed or natural sequence
silencing of Lsd1 expression (Lsd1): 50%
